# Experimental data from US20230233704A1, “HYDROGEL COMPOSITION AND ASSOCIATED METHOD OF USE” (Quthero, Inc., priority 2017, published 2023).
# Key:
# [1] = test system: Primary neonatal human epithelial keratinocytes (HEKs); test: BrdU proliferation assay of HEKs with soluble QHREDGS peptide; format: cell-based; details: soluble peptide Low 100 μM, High 650 μM; 8 h BrdU
# Description: (§1) The effect of the QHREDGS peptide as in the soluble form was assessed on HEKs in vitro. 24- or 96-well plates were coated with 0.05 mg/mL type I collagen (BD Biosciences) in 0.02 N acetic acid overnight and then rinsed once with phosphate buffered saline (PBS) (Lonza). HEKs were seeded in complete EpiLife medium and attached for at least 2 h. 100 μM or 650 μM QHREDGS was supplemented to the EpiLife medium as Low or High dosage, respectively.
# HEKs were seeded at a density of 1×10^4 cells/cm^2 in collagen-coated 96-well plates. After 4 h, media was removed and replenished with EpiLife media supplemented with 20 μM bromodeoxyuridine (BrdU) (Sigma Aldrich) in the presence or absence of QHREDGS peptide. After incubating for 8 h, proliferating HEKs were identified by BrdU staining. Briefly, HEKs were fixed with 4% paraformaldehyde (PFA), permeablized with 0.25% triton X, treated with DNase for 30 min at 37° C., and blocked with 5% bovine serum albumin (BSA). The HEKs were then incubated with a rat anti-BrdU antibody (AbD Serotec) overnight at 4° C. followed by an anti-rat TRITC-labelled secondary antibody (Jackson Immuno Research). BrdU-positive cells were counted in 5 randomly chosen fields under 20× magnification and then normalized to the total number of cells labelled by 4′,6-diamidino-2-phenylindole (DAPI) counterstaining.
# HEKs [2] = test: HEK migration on collagen coated surfaces with soluble QHREDGS peptide; format: cell-based, human; details: soluble peptide 100 μM or 650 μM; collagen-coated surface; 24 h
# Description: as §1
# Culture-inserts were purchased from Ibidi® and carefully placed on the chitosan-collagen films in 24-wells. HEKs were seeded in complete EpiLife medium at 0.3-0.4×10^6 cells/mL with 70-100 μL per chamber and allowed to attach for 2 h. The culture-inserts were then carefully lifted and the unattached HEKs were immediately removed by rinsing twice using warm PBS. Basal EpiLife medium was then added to the wells and the wells were imaged every 2 h for 8 h and the next day using the SpectraMax i3 plate reader. Confluent HEK monolayers were wounded (time 0) and maintained for 24 h in EpiLife basal medium with 0.12 mM Ca2+. The wounds were outlined and the area at the various time points was normalized to the initial wound size (time 0). After 24 h, HEKs were fixed with 4% paraformaldehyde.
# HEKs [3] = test: EarlyTox Cell Integrity assay after H2O2 treatment of HEKs with soluble QHREDGS peptide; format: cell-based, human; details: 500 μM H2O2 for 2 h; soluble peptide 100 μM / 650 μM, 2 h pre-conditioning
# Description: (§2) HEKs were seeded at a sub-confluent density in a 96-well plate for the cell integrity assay or a 24-well plate for Western blot analysis, and serum starved overnight. The HEKs were then pretreated with soluble QHREDGS (100 μM for Low and 650 μM for High) for 2 h. The cells were then exposed to fresh EpiLife basal medium supplemented with 500 μM H2O2 in the presence or absence of QHREDGS peptide. For the cell integrity assay, the cells were stained using the EarlyTox™ Cell Integrity kit (Molecular Devices) after 2 h of H2O2 treatment. For the Western analysis, another set of wells were seeded in parallel for the Ctrl, Low and High conditions and protein samples were collected after 0, 15 min and 2 h of H2O2 treatment.
# The EarlyTox™ Cell Integrity Kit (Molecular Devices, R8213) is based on two nuclear dyes: live red dye is cell permeant and marks both live and dead cells (Excitation: 622 nm/Emission: 645 nm); dead green dye is cell impermeant and stains only cells with damaged outer membranes (Excitation: 503 nm/Emission: 526 nm). […] The plate was then incubated at 37° C. for 30 min and imaged using a SpectraMax i3 plate reader (Molecular Devices). The percentage of viable cells after H2O2 treatment on chitosan-collagen films in the presence or absence of QHREDGS peptide was normalized to the viability percentage of non-treated controls on the same coating film condition.
# [4] = test system: Akt and MAPKp42/44 phosphorylation; test: Western blotting of HEKs under H2O2 stress with soluble QHREDGS peptide; format: cell-based, human; details: 500 μM H2O2, 15 min, soluble peptide 100 μM / 650 μM
# Description: as §2
# Protein was isolated from keratinocytes in the 24-well plate after H2O2 treatment using 60-80 μL Lysis Buffer per well (10× Cell Lysis Buffer, Cell Signaling Technology; complete Mini, EDTA-free protease inhibitor cocktail tablet, Roche; in ddH2O). Proteins were separated by electrophoresis in Novex Tris-Glycine gels (Life technologies) and transferred using the iBlot (Life technologies) to a PVDF iBlot Transfer Stack (Life technologies). Membranes were probed for phospho-p44/42 MAPK (pMAPKp42/44), p44/42 MAPK (MAPKp42/44), phospho-Akt, Akt, or GAPDH as a loading control (Millipore). All primary antibodies were purchased from Cell Signaling unless stated otherwise. […]
substance,measurement,setting,value
QHREDGS [QHREDGS peptide],percentage of proliferating HEKs (BrdU incorporation),[1],not affected
same,HEK migration rate,HEKs [2],No significant difference
same,percentage of viable HEKs under oxidative stress,HEKs [3],significant dose-dependent increase
same,phosphorylation of Akt and MAPKp42/44,[4],increased the phosphorylation of Akt and MAPKp42/44 and the increase was dose-dependent
